Measurements taken from ChEMBL document CHEMBL5728415, “Heteroaryl-substituted sulfonamide compounds and their use as therapeutic agents” (2021).

Experiments:
[1] = Sodium Influx Assay (In Vitro Assay): This sodium influx assay employs the use of the cell permeable, sodium sensitive dye ANG2 to quantify sodium ion influx through sodium channels which are maintained in an open state by use of sodium channel modulators. This high throughput sodium influx assay allows for rapid profiling and characterization of sodium channel blockers.In general, Trex HEK293 …
[2] = target: Sodium channel protein type 8 subunit alpha (Homo sapiens, UniProt Q9UQD0); test: as above
Chain of Sodium channel protein type 8 subunit alpha (Q9UQD0 whole entry): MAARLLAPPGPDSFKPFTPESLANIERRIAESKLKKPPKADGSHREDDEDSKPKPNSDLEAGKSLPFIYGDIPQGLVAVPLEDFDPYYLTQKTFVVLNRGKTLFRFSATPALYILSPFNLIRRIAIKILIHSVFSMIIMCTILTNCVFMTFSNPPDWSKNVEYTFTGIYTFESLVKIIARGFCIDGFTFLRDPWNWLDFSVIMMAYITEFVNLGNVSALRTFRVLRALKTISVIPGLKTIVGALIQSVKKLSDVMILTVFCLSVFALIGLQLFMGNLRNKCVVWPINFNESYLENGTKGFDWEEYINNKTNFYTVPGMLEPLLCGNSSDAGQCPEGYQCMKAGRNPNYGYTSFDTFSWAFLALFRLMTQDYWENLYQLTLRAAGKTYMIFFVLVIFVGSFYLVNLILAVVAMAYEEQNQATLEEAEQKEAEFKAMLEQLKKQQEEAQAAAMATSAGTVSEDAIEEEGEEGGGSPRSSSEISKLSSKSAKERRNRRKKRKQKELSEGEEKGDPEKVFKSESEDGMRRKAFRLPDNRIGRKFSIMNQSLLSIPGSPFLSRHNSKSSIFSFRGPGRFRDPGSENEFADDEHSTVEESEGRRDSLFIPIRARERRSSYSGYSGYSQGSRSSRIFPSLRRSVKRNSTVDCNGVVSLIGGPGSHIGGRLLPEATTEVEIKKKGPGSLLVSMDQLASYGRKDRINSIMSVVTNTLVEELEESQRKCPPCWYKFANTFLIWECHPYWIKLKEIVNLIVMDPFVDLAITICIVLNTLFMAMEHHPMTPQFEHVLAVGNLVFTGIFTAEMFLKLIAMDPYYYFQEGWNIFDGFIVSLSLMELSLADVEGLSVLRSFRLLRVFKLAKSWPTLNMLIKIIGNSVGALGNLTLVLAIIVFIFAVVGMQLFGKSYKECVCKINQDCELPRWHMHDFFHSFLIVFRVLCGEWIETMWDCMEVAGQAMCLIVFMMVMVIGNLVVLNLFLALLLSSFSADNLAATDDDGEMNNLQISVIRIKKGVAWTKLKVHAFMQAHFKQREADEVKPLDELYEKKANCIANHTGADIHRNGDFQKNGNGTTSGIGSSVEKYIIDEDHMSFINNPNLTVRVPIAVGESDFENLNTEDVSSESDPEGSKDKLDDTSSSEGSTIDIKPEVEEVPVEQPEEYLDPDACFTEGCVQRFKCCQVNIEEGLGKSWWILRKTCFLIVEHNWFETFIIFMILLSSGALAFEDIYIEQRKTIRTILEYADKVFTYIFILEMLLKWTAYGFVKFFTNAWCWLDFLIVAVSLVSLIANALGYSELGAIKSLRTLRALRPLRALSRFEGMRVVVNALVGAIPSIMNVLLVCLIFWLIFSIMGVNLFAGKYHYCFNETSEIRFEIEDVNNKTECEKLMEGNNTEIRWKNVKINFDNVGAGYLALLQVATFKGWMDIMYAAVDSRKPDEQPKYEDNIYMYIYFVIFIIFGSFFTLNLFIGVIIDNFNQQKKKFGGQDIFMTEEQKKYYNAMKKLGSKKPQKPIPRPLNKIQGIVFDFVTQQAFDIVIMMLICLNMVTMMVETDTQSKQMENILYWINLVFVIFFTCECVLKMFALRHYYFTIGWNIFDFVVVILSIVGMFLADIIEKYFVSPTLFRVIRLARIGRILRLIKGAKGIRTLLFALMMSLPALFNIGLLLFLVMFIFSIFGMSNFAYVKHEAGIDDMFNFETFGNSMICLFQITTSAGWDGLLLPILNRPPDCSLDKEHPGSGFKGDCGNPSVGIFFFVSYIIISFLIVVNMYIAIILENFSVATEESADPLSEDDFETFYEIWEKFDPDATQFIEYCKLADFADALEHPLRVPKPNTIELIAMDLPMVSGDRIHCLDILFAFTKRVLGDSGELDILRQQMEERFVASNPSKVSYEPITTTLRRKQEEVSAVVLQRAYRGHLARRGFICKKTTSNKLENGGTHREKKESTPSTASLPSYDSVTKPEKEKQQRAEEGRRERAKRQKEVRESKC

| Structure (SMILES) | IC50 [1] | IC50 [2] |
| --- | --- | --- |
| Cc1nc(NCc2c(F)cccc2CN2CCCC2)ccc1S(=O)(=O)Nc1cscn1 | 6.18 µM | – |
| Cc1cc(S(=O)(=O)Nc2cccc(F)n2)ncc1NCc1c(F)cccc1CN1CCCC1 | 28.8 µM | – |
| Cc1nc(S(=O)(=O)Nc2cscn2)c(F)cc1NCc1c(F)cccc1CN1C2CCC1CC2 | – | 0.037 µM |
